Test results as given in patent EP0180309B2, “Improved disinfecting and preserving solutions for contact lenses and methods of use” (priority 1984, dated 1986).

Test system: L-929 mouse fibroblast cells
Type: cell-based
Conditions: 10 ppm
Experimental: Comparative studies are conducted to evaluate the cytotoxicity of individual aqueous lens disinfecting and preservative solutions containing PHMB, benzalkonium chloride and chlorhexidine. The studies utilize the Agar Overlay Assay Technique published in the Journal of Pharmaceutical Sciences, Vol. 54 (1965) pp 1545-1547 by W. L. Guess et al. The technique utilized is similar to the Zone of Inhibition Method of Otten et al (Example VII), however, when the lenses are removed from the preservative solutions they are only rinsed with isotonic saline solution to remove residual preservative. The lenses are then placed on L-929 mouse fibroblast cells to ascertain the presence of any cytotoxic response or cell inflammation which is noted by a lysing of the cells.

- Percent Cells Lysed: 0/0
- Width of Decolorized Zone: 0/0
SMILES: [H]/N=C(\N/C(=N/[H])NCCCCCCNC(=N)NC(=N)Nc1ccc(Cl)cc1)Nc1ccc(Cl)cc1 [Chlorhexidine, chlorhexidine gluconate]
